What was measured:
[1] = molecular target: T1, CB1 cannabinoid receptors (Homo sapiens, UniProt P21554); experiment: models of adenylate-cyclase inhibition; format: biochemical; conditions: as described in Rinaldi-Carmona et al. 1996
Text: More particularly, the compound of the present invention, in its native form or in the form of one of its pharmaceutically acceptable salts, is a powerful and selective antagonist of the CB1 cannabinoid receptors.

[2] = molecular target: T2, CB1 receptors present in the brain (Mus musculus, UniProt P47746); experiment: duration of occupation of the CB1 receptors present in the brain, in vivo after oral administration; conditions: mice, oral 10 mg/kg; for % of occupation of the receptors, 1 hour: 1 hour after administration; for % of occupation of the receptors, 24 hours: 24 hours after administration
T2 construct: from tissue; host or cells: mouse brain
Text: Moreover, the duration of occupation of the CB1 receptors present in the brain by the 3 compounds below was compared: […]

[3] = molecular target: T1, CB1 cannabinoid receptors; experiment: in vitro affinity for CB1 cannabinoid receptors (conditions of Devane et al.)
[4] = system: hypothermia induced with a cannabinoid receptor agonist (WIN 55212-2); experiment: antagonism of the hypothermia induced with WIN 55212-2; format: in vivo; conditions: mice; for ED50: Mus musculus, oral, WIN 55212-2 induced hypothermia; for Duration of action, 24 h, oral dose 1 mg/kg: oral dose 1 mg/kg
Text: In this test, the activity and the duration of action of 3 compounds were compared.

T1 sequence (P21554 whole entry): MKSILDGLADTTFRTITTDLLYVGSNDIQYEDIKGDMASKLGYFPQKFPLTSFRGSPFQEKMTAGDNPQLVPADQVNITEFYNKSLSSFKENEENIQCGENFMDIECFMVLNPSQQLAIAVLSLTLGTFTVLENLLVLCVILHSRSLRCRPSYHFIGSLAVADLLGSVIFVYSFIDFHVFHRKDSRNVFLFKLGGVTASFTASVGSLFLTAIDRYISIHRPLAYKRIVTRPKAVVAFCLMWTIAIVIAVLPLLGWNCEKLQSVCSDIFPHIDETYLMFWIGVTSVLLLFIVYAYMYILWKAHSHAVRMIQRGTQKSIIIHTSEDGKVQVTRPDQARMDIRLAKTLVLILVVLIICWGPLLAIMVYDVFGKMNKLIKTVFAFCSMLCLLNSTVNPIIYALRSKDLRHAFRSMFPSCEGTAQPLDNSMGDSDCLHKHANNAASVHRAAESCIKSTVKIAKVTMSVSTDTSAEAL
T2 sequence (P47746 whole entry): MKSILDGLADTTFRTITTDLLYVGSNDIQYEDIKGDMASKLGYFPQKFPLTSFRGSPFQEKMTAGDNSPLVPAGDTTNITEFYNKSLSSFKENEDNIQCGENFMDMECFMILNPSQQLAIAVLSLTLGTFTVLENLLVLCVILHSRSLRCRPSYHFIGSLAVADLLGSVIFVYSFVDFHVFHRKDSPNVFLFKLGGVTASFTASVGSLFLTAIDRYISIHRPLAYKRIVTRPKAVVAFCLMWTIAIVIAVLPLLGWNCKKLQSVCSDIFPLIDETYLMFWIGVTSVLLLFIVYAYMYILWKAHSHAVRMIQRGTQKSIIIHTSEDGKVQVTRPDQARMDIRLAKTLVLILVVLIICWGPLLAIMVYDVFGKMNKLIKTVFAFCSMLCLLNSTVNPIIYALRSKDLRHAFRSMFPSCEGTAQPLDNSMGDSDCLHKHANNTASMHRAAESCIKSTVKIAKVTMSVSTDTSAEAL

antagonist nature in models of adenylate-cyclase inhibition [1]	% of occupation of the receptors, 1 hour [2] [%]	% of occupation of the receptors, 24 hours ([2]; 10 mg/kg) [%]	% of occupation of the receptors, 24 hours ([2]; listed as compound of formula (I), 10 mg/kg) [%]	Ki [3] [nM]	% of occupation of the receptors, 24 hours [2] [%]	SMILES	ED50 [4] [mg/kg]	Duration of action, 24 h, oral dose 1 mg/kg ([4]; 24 h after administration)	Duration of action, 24 h, oral dose 10 mg/kg ([4]; oral dose 10 mg/kg, 24 h after administration)
antagonist	82	44	44	5.4	–	CCc1c(C(=O)NN2CCCCC2)nn(-c2ccc(Cl)cc2Cl)c1-c1ccc(Br)cc1 [Compound of formula (I), N-piperidino-5-(4-bromophenyl)-1-(2,4-dichlorophenyl)-4-ethylpyrazole-3-carboxamide]	0.3	active	–
–	89	–	–	8	4	Cc1c(C(=O)NN2CCCCC2)nn(-c2ccc(Cl)cc2Cl)c1-c1ccc(Br)cc1 [Compound A, reference compound]	0.3	not active	active

From patent US6432984B1, “Pyrazolecarboxylic acid derivatives, their preparation, pharmaceutical compositions containing them” (Sanofi-Synthelabo, priority 1999, dated 2002)
